Patent US12251449B2, “Synthetic multidomain peptide biomaterials that inhibit inducible nitric oxide synthase” (William Marsh Rice University, priority 2019, dated 2025)
Entries after “also recorded” stand apart in the source; their conditions may differ.

Columns and labels:
[1] = tested on: MOC1 tumors; assay: MOC orthotopic murine model of oral cancer (Example 9); conditions: established 4-5 mm MOC1 tumors
Protocol: MOC orthotopic murine model of oral cancer. MOC1 tumors were established by injecting 2×10^6 cells (70%:30% cells: Matrigel®Matrix) into the maxillary vestibule of the left oral cavity in C57BL/6J mice. […] Tumor growth was monitored by tumor size measurements (in diameter) taken at least two times per week using digital calipers to measure the longest dimension (single dimension). Data was then analyzed for Kaplan-Meier survival and tumor growth curves. […] Excessive tumor burden, defined as tumor diameter reaching 12 mm, tumor ulceration, or a weight loss of greater than 20% were factors that were considered for all endpoints in tumor growth and survival data.
Statistical methods. Statistical analyses were performed using Prism 7.0 (GraphPad, San Diego, CA). Statistical analyses for Kaplan-Meier survival curves were performed using the Log-rank/Mantel-Cox test. Statistical significance for tumor growth curves was determined by a two-way ANOVA test followed by selected comparison using Tukey's multiple comparison tests with multiple comparison correction. All p values were two-sided and p values less than 0.05 were considered significant.

[2] = reported in Aulisa et al., 2009; cited from earlier work
[3] = tested on: RAW 264.7 cells; assay: Live-dead viability of RAW 264.7 cells on MDP hydrogels; assay type: cell-based, mouse; conditions: RAW macrophages on 1 wt. % hydrogel, one to three days
Protocol: Cell culture. For in vitro experiments, mouse RAW 264.7 cells (ATCC TIB-71) were grown in DMEM media supplemented with 10% Heat-Inactivated Fetal Bovine Serum (HI-FBS), L-glutamine, sodium pyruvate, and 1% penicillin-streptomycin. Cells were cultured at 37° C. with 5% CO2 and subcultured using scraping.
For 2-D culture live-dead viability studies, peptide hydrogels were pipetted into 0.4 cm^2 wells of Lab-Tek 16 well glass chamber slides (Thermo Fischer, Rochester, NY). Gels were pipetted to produce 70 μL pucks with a thickness of 1.75 mm. The gels were carefully pipetted into the bottom of each well and tapped before shear recovery to create flat gel profiles. After pipetting, the samples were allowed to shear recover for 5-10 min before adding 200 μL cell media and 10,000 RAW 264.7 cells. For each experiment time point (days 1 and 3) separate slides with duplicate gels were created. The cell media was changed every 2 days, taking care to not disturb or dislodge the gel material.
At each desired time point the following procedure was used to stain the cells for live-dead analysis. Live-dead staining solution was prepared in DPBS (Thermo Fisher Scientific, Rockford, IL) with 2 μM Calcein AM (Life Technologies), 4 μM Ethidium homodimer (Life Technologies), and 5 μg/mL Hoechst 33342 (BD Biosciences, San Jose, CA). Cell media was removed from the top of the hydrogel samples, which were then washed with PBS. Samples were then stained with 100 μL of prepared solution by incubating at 37° C. with 5% CO2 for 60 min while protected from light. After staining, the gels were removed from the glass chamber slides and placed in PBS before immediately imaging by confocal. Gels were analyzed by z-stack imaging using a Nikon A1 Confocal Microscope with a 40× water objective (405 nm blue channel laser, 488 nm green channel laser, 561 nm red channel laser). Image processing was done using NIS Elements, and Imaris Cell Counting software was used to quantify live-dead percentages.

[4] = tested on: iNOS; assay: Anti-nitrotyrosine immunostaining of subcutaneously injected hydrogels; assay type: in vivo, mice; conditions: subcutaneous implants, 3 and 7 days post injection
Protocol: Subcutaneous experiments and histology. C57BL/6J female mice were purchased from The Jackson Laboratory at age 8-12 weeks for subcutaneous characterization experiments. Mice were housed under specific pathogen-free conditions in standard temperature and lighting conditions with free access to food and water, and experiments were conducted with approval of the Institutional Animal Care and Use Committee (IACUC) at Rice University and according to NIH guidelines. Mice were injected with 100 μL MDP hydrogels in each of four separate sites in the subcutaneous space of the dorsal flank after the skin was shaved and sterilized with alcohol. At days 3, 7, 14, and 21 the mice were euthanized and the dorsal skin around the entire implant was removed, fixed overnight in 10% neutral buffered formalin, processed and paraffin embedded, and finally sectioned at […] thickness for staining using standard Masson's trichrome or hematoxylin and eosin (H&E) procedures, as well as immunohistochemical analyses (e.g., anti-nitrotyrosine IHC, or α-SMA blood vessel analysis).
Immunohistochemistry staining was performed on hydrogel implant tissue sections to further study in vivo properties of the L-NIL-MDP compared to related cationic MDPs. Anti-nitrotyrosine immunostaining was used to assess relative levels of nitrosylation of tyrosine within and around the subcutaneously injected hydrogel implants as a marker of iNOS inhibition (FIGS. 7A-H). It is known that the formation of nitric oxide (NO) and other nitrogen oxides in vivo can lead to observable post-translation modifications of peptides and proteins (Ischiropoulos, 2003). For example, surface-exposed 3-nitrotyrosine can be used as a marker of cell or tissue inflammation and damage by reactive nitrogen and oxygen species such as NO (Ahsan, 2013). The higher the local levels of iNOS activity, the greater should be the density of nitrosylated tyrosine. Therefore, visualization of nitrotyrosine levels by targeted antibodies can serve as a general indication of in vivo iNOS activity, or in the case of the L-NIL-MDP, local iNOS inhibition.

[5] = biological target: T1, iNOS (Mus musculus, UniProt P29477); assay: iNOS knockdown in vitro Greiss assay; assay type: cell-based; conditions: for iNOS inhibition (in words): stimulated RAW macrophages cultured on the hydrogel
T1 construct: endogenous in cells; host or cells: RAW 264.7 murine macrophages stimulated with LPS and IFN-gamma
T1 sequence (P29477 1-1144): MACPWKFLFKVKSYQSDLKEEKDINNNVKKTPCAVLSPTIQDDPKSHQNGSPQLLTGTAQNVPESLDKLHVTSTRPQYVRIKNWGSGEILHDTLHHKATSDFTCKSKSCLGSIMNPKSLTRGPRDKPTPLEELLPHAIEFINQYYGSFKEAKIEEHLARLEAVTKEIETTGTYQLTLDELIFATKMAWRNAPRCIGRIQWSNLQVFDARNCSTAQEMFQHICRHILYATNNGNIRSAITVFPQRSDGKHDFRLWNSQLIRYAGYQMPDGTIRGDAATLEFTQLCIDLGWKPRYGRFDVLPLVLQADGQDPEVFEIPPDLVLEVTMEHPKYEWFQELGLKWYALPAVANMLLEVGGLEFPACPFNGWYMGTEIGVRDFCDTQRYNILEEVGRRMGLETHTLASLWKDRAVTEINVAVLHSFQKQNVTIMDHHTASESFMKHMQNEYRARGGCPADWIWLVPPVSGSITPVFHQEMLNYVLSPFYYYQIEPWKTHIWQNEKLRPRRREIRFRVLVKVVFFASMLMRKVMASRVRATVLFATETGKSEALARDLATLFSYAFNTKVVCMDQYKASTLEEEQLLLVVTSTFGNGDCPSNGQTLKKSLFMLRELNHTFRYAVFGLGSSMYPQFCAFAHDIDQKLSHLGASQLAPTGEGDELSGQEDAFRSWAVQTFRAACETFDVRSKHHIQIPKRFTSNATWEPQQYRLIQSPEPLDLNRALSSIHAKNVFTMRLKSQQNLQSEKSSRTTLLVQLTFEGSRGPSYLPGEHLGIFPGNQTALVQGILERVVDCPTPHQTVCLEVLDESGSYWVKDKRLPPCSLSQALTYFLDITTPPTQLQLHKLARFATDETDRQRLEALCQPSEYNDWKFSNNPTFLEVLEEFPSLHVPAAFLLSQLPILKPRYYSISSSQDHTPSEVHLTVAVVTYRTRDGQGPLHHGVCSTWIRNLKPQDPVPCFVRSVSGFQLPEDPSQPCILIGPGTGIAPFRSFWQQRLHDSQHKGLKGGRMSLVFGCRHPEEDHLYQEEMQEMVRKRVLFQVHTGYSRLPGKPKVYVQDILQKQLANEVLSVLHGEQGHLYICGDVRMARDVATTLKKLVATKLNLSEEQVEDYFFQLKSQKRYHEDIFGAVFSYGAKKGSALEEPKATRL
Protocol: iNOS knockdown in vitro Greiss assay. To evaluate the iNOS knockdown efficacy of various materials, the following procedure was used to test % iNOS inhibition of RAW 264.7 cells stimulated with Lipopolysaccharide (LPS, Thermo Fisher Scientific, Rockford, IL) and recombinant mouse IFN-7 (Biolegend, San Diego, CA). RAW macrophages were prepared at a stock concentration of 2.5×10^6 cells/mL, and plated at 2.5×10^5 cells per well in 24-well plates. For samples testing the efficacy of 2-D surface cell culture, 200 μL of MDP hydrogels was applied to evenly coat the surface of each well before addition of cells. Each experimental condition was performed in triplicate. The following controls were included in every experiment, 1) media alone, 2) stimulated cells alone, and 3) unstimulated cells alone. To each well, stimulation media or normal media was then added based on experimental requirement. Stimulation media was prepared with LPS (final concentration 1 μg/mL) and IFN-7 (final concentration 100 U/mL). For samples testing material efficacy in solution (e.g. free L-NIL), after 6 hrs of incubation at 37° C. with 5% CO2 the desired concentration of inhibitor was added to achieve a range of concentrations between 1 μM and 1 mM.
In all cases after 24 hours from time of stimulation, samples of cell media were collected from each well after mixing media by pipetting before collection. Media samples were placed into a 96-well plate and centrifuged at 5000 rpm for 10 min. Supernatants were removed and placed in a new clear 96-well plate, and samples were immediately analyzed using a colorimetric Greiss Assay (Cayman Chemical, Ann Arbor, MI) to assess nitrite levels (Bryan & Grisham, 2007). Color was allowed to develop for 10 min following addition of Greiss reagents, and absorbance was read at 540 nm on a plate reader. Percent iNOS inhibition for each sample was calculated by first subtracting the absorbance of the media-only baseline, and then converting to a percent of maximum nitrite signal as determined by the internal standard of stimulated cells alone.

[6] = tested on: VEGF; assay: Serum VEGF ELISA in mice bearing B16-F0 melanoma tumors; assay type: in vivo; conditions: 5 days after single 100 μL intratumoral injection
Protocol: Evaluation of in vivo VEGF reduction using murine B16-F0 melanoma tumor model. C57BL/6J male mice were purchased from The Jackson Laboratory. […] All experiments were performed with approval of IACUC at Baylor College of Medicine (BCM) and followed established protocols. B16-F0 melanoma cell line was purchased from American Type Culture Collection (ATCC) and maintained according to manufacturer instructions (DMEM high-glucose with 10% fetal bovine serum and 1% penicillin/streptomycin). C57BL/6J mice were injected subcutaneously (s.c.) with 3×10^5 B16-F0 cells in a single flank. Once tumors became palpable (day 7 post-inoculation) mice were injected intratumorally (i.t.) with either vehicle buffer control Hank's Balanced Salt Solution (HBSS), free L-NIL dissolved in HBSS at 20 mM, K2-MDP hydrogel at 1 wt. % (5.6 mM peptide), or L-NIL-MDP hydrogel at 1 wt. % (5.2 mM peptide, or approximately 20 mM L-NIL functional groups). All injections were done using 100 μL total injection volume.
Mice were euthanized 5 days following i.t. injections and tumor/blood were collected. […] VEGF quantification of undiluted serum was performed using a mouse VEGF Quantikine ELISA kit (R&D Systems, Minneapolis, MN) following manufacturer's instructions. […] Statistical differences were evaluated using Tukey's multiple comparisons test. […]

[7] = CDN drug release kinetics from hydrogels; assay type: physicochemical
Protocol: Drug release kinetics. For release kinetics studies of CDN release from various hydrogel formulations, aliquots of CDN-loaded gel (30 μL each) were deposited into 96 well Falcon® flat bottom plates (Becton Dickinson Labware, Franklin Lakes, NJ). 30 μL gel was pipetted to generate a cylindrical puck in each well for each experiment. The pipetted gels were allowed to shear recover for approximately 5-10 min before adding 200 μL of the relevant buffer to the top of the gels (1× HBSS for all MDPs, 1× DPBS for collagen, Matrigel, 1× HBSS with 0.1 M CaCl2) for alginate, etc. according to the gelation requirements of the material). The addition of buffer was defined as t=0 for the beginning of release kinetics experiments. Table 1 summarizes the material conditions and preparation methods used for various comparative CDN delivery kinetics studies.
A Nanodrop 2000C Spectrophotometer (Thermo Scientific) was used to measure drug release by UV absorbance at 259 nm for CDN ML RR-S2 CDA, using an extinction coefficient of 24,000 M^−1cm^−1 (259 nm). Absorbance measurements were obtained by removing […] from the top of the liquid buffers above the loaded gels, over time measuring the increase in absorbance. Over the course of the first 24 hours, release of CDN was measured usually every 1-2 hours and converted to total percent released, with additional measurements also made every 24 hours for up to a week to establish when equilibrium had been reached.

Compound	cell attachment, survival and proliferation (in words) [3]	nitrotyrosine staining intensity (in words) [4]	iNOS inhibition (in words) [5]	CDN release profile (in words) [7]	also measured
Nc1ncnc2c1ncn2[C@@H]1O[C@@H]2COP(O)(=S)O[C@@H]3C(O)[C@@H](COP(O)(=S)O[C@H]2[C@H]1O)O[C@H]3n1cnc2c(N)ncnc21 (stereo partly shown) [CDN, ML RR-S2 CDA]	–	–	–	–	mice surviving to the 150-day endpoint ([1]; single intratumoral injection): 20%
CC(=O)N[C@@H](CCCCN)C(=O)N[C@@H](CCCCN)C(=O)N[C@@H](CO)C(=O)N[C@@H](CC(C)C)C(=O)N[C@@H](CO)C(=O)N[C@@H](CC(C)C)C(=O)N[C@@H](CO)C(=O)N[C@@H](CC(C)C)C(=O)N[C@@H](CO)C(=O)N[C@@H](CC(C)C)C(=O)N[C@@H](CO)C(=O)N[C@@H](CC(C)C)C(=O)N[C@@H](CO)C(=O)N[C@@H](CC(C)C)C(=O)N[C@@H](CCCCN)C(=O)N[C@@H](CCCCN)C(N)=O [K2-MDP, K2(SL)6K2]	highest degrees of cell attachment and proliferation	moderate	moderate	–	median survival ([1]; single 30 μl intratumoral injection): 46 days; storage modulus (G′) [2]: 200-500 Pa; free L-NIL concentration giving a comparable level of iNOS inhibition ([5]; hydrogel surface culture compared with free L-NIL in solution): < 10 µM; iNOS inhibitory activity, fold less than L-NIL-MDP ([5]; in terms of comparison to free L-NIL concentration): ~10 fold
CC(=N)NCCCC[C@H](N)C(=O)O [L-NIL, N6-(1-iminoethyl)-L-lysine, reference compound]	–	–	–	–	reduction of systemic VEGF levels (in words) [6]: not achieved
Ac-EESLSLSLSLSLSLEE-NH2 [E2-MDP, E2(SL)6E2]	poorer cell survival and proliferation rates	–	little to no iNOS inhibition	nearly identical release profiles to each other	–
Ac-RRSLSLSLSLSLSLRR-NH2 [R2-MDP, R2(SL)6R2]	highest degrees of cell attachment and proliferation	highest nitrotyrosine staining	little to no iNOS inhibition; also recorded: lowest iNOS inhibition	–	–
O5(SL)6O5 [05-MDP]	–	–	–	nearly identical release profiles to each other	–
